Assay results reported in patent US6239087A, “Detergent compositions containing fragrance precursors and the fragrance precursors themselves” (The Procter & Gamble Company, priority 1998, dated 2001).

test: Pro-Fragrant Hydrolysis Test (hydrolysis half-life t-1/2 by UV/Vis); type: physicochemical; conditions: pH 0; 90/10 dioxane/water, 30° C.
Experimental: Hydrolysis half-life is the measurement used to determine the ease with which the pro-fragrance compound undergoes acid hydrolysis and thereby releases its fragrance component(s) upon exposure to acid conditions. […] Preferably, pro-fragrances of the invention have a half-life at pH 2 of less than 60 minutes. For granular detergents, the more reactive pro-fragrances, that is, those with half-life at pH 2 of less than one minute, are most suitable, although those having a half-life of less than 60 minutes at pH 0 are also useful. For liquid detergent applications, pro-fragrances having a half-life of less than 60 minutes at pH 0, and half-life greater than one minute at pH 2 should preferably be used.
Hydrolysis half-life is determined by UV/V is spectroscopy in a 90/10 dioxane/water system at 30° C. by following the appearance of the carbonyl absorbance. Because of the hydrophobicity of the pro-fragrance compounds of the invention, a high dioxane/water ratio is needed to ensure solubility of the pro-fragrance. The pH of the water used is achieved by using aqueous HCl. The concentration of the pro-fragrance in the dioxane/water system can be adjusted to achieve convenient, measurable absorbance changes.
All measurements are carried out using a Hewlett Packard 8452 A Diode Array Spectrophotometer using quartz 1 cm path length cuvette cells. […] The pH's are measured using an Orion 230 A standardized with pH 4 and pH 7 buffers. […]
Pro-fragrance is weighed out in a 10.00 ml volumetric flask using an analytical balance (Mettler AE 200) Precision is 1/10 mg. […] Hydrolysis time is measured, starting upon addition of the acid. […] The absorbance of the pro-fragrance solution (At) is followed at a regular series of time intervals, and the cuvette is kept in the water-bath at the above-indicated temperature between measurements. Initial absorbance (Ao) measurements are carried out using an equal concentration of pro-fragrance in a 90/10 v/v dioxane-deionized water solution, and final absorbance (Af) measurements are taken using the hydrolyzed pro-fragrance solution after the hydrolysis is complete. The wavelength at which the hydrolysis is followed is chosen at the wavelength of the absorbance maximum of the parent aldehyde or ketone.
Reaction half-lifes are determined using conventional procedures. The observed first-order rate constant (kobs) is determined by slope of the line provided by plotting the following finction vs time (min):
wherein said function is the natural log of the ratio between the absorbance difference at initial time (Ao) and final time (Af) over the absorbance difference at time t (At) and final time (Af). […]

t1/2 (hydrolysis half-life) | Structure (SMILES)
less than 1 minutes | CCCCCCCCCCOC(OCCCCCCCCCC)c1ccc(OC)cc1 [Example 1, Didecyl Anisaldehyde Acetal]
less than one | CC(C)=CCCC(C)=CC(OC/C=C(\C)CCC=C(C)C)OC/C=C(\C)CCC=C(C)C [Example 2, Digeranyl Citral Acetal]
less than one | CCCCCCCCCCOC(C)(CCc1ccccc1)OCCCCCCCCCC [Example 3, Didecyl Benzyl Acetone Ketal]

Structure (SMILES) | t1/2 (hydrolysis half-life)
CCCCCCCCCC(OC/C=C(\C)CCC=C(C)C)OC/C=C(\C)CCC=C(C)C [Example 4, Digeranyl Decanal Acetal] | 44 min
